Measured values from patent US5780441A, “Sphingoglycolipid compounds and therapeutic uses thereof” (Kirin Beer Kabushiki Kaisha, priority 1993, dated 1998).

Tests used:
[1] = tested on: lethally irradiated mice; test: Radioprotective effect: life-span prolongation of lethally irradiated mice; type: in vivo, mouse (BDF1 female); settings: 0.1 mg/kg i.v. days 0, 4, 8, 9 Gy X-ray, groups of 10
Description: Life-span-prolonging effects of the present compounds on lethally irradiated mice.
Experiment was performed with BDF1 female mice (6 weeks old) purchased from NIPPON SLC K.K., which were divided into groups consisting of 10 animals. Mice were irradiated generally with 9 Gy of X-ray with an X-ray generating apparatus, Hitachi, MBR-1520R (radiation day: day 0). Samples at a dose of 0.1 mg/kg were administered into tail vein on days 0, 4 and 8 in order to observe the mortality of the animals for 40 days.
In the table, two experiments are separated by the broken line.

[2] = tested on: mouse splenic lymphocyte; test: In vitro mouse splenic lymphocyte-proliferation-stimulating effect (3H-TdR uptake); type: cell-based, mouse (BDF1 female); settings: 2 days
Description: i) In vitro mouse splenic lymphocyte growth promoting effects of the present compounds
Experiment was performed with BDF1 female mice (6 weeks old) purchased from NIPPON SLC K.K. Spleens were removed from mice, and spleen cells were brayed with slide glasses and hemolized with NH4 Cl. 2×10^6cells/ml of the spleen cells which had been hemolized were suspended in 10% FCS RPMI 1640. The cell suspension (100 μl/well) and a vehicle or sample (10 μl/well) which was prepared so as to have a final level shown in Table 3 were added into wells of a round-bottomed 96 well plate, and cultured under the condition of 5% CO2 at 37° C. for 2 days. 0.5 μCi/well of ^3 H-thymidine (^3 H-TdR) was added. After 6 hours, the cells were harvested, and the amount of ^3 H-TdR uptaken into nucleus was measured by a liquid scintillation counter. The ratio (%) of the uptake of ^3 H-TdR in the sample group to that in the vehicle group was calculated and used as the in vitro mouse splenic lymphocyte-proliferation-stimulating rate.

[3] = tested on: P388 mouse leukemia cells; test: Life-span-prolonging (anti-tumor) effect on mice subcutaneously inoculated with P388 mouse leukemia cells; type: in vivo, mouse (CDF1 female); settings: 0.1 mg/kg i.v. on days 1, 5 and 9; for Survival days ave. ± s. d.: all marked ** (p < 0.01)
Description: i) Anti-tumor effect of the compound of the present invention on mice subcutaneously inoculated with P388 mouse leukemia cells.
Experiment was performed with CDF1 female mice (6 weeks) purchased from NIPPON SLC K.K., which were divided into groups consisting of 5 animals. […]. In this connection, lentinan and picibanil were administered intravenously on days 1, 3, 5, 7 and 9 after implantation, and sizofilan was administered subcutaneously on days 1 through 9. Statistical analysis was performed according to the Mann-Whiteney test.

[4] = tested on: B16 mouse melanoma cells; test: Tumor growth inhibition in mice subcutaneously inoculated with B16 mouse melanoma cells; type: in vivo, mouse (BDF1 female); settings: 0.1 mg/kg i.v. days 1, 5, 9; maximum during 20 days
Description: ii) Anti-tumor effect of the compound according to the present invention on mice subcutaneously inoculated with B16 mouse melanoma cells.
Experiment was performed with BDF1 female mice (6 weeks) purchased from NIPPON SLC K.K., which were divided into groups consisting of 6 animals. […]. The subcutaneous tumor volumes [(length×width×height)/2] were measured on days 8, 12, 16 and 20 after implantation to determine the tumor growth inhibiting rate (TGIR) of each sample. TGIR was calculated from the following formula: […]
wherein C: tumor volume in the control group, and
T: tumor volume in the sample adminitered groups.
In this connection, Compounds 1-6 and 7-9 were tested in the same time, respectively.

[5] = tested on: mouse bone marrow cells; test: In vitro mouse bone marrow cell-proliferation-promoting effect (3H-TdR uptake); type: cell-based, mouse (BDF1 female); settings: 4 days
Description: In vitro mouse bone marrow cell-proliferation-promoting effect of the present compound
Experiment was performed with BDF1 female mice (6 weeks old) purchased from NIPPON SLC K.K. Bone marrow cells were removed from the femoral bone of mice by the conventional manner, floated on 10% FCS RPMI 1640, layered over Lympholite M, and centrifuged to give a monocyte fraction. 1×10^6 cells/ml of the monocyte fraction was suspended in 10% FCS RPMI 1640. The cell suspension (100 μl/well) and a vehicle or sample (10 μl/well) which was prepared so as to have a final level shown in Table 2 were added into a wells of round-bottomed 96 well plate, and cultured under the condition of 5% CO2 at 37° C. for 4 days. 0.5 μCi/well of ^3 H-thymidine (^3 H-TdR) was added. After 6 hours, the cells were harvested, and the amount of ^3 H-TdR uptaken into nucleus was measured by a liquid scintillation counter. The ratio of the uptake of ^3 H-TdR in the sample group to that in the vehicle group was calculated and used as the activation rate for promoting in vitro mouse bone marrow cell growth.

[6] = tested on: mixed lymphocyte culture reaction (spleen cells of C57BL/6 and BALB/C mice); test: Mixed lymphocyte culture reaction (MLR); type: cell-based, mouse (C57BL/6 stimulator, BALB/C responder); settings: 42 hours
Description: ii) Mixed lymphocyte culture reaction (MLR) of the compounds of the present invention
Spleen cells were prepared from C57BL/6 mice and treated with 50 μg/ml of mitomycin C for 30 minutes. The treated cells were used as stimulator cells, and the spleen cells of BALB/C mice as responder cells. 2×10^6 cells/ml of the both spleen cells were suspended in 10% FCS RPMI1640 as a culture medium. The above-described cells (50 μl/well) and a sample (10 μl/well) were added into wells of a round-bottomed 96 well plate, and cultured under the condition of 5% CO2 at 37° C. for 42 hours. 0.5 μCi/well of ^3 H-thymidine (^3 H-TdR) was added. After 8 hours, the cells were harvested, and the amount of uptaken ^3 H-TdR was measured by a liquid scintillation counter to calculate the ratio (%) of the uptake of ^3 H-TdR in the sample group to that in the vehicle group as the MLR activating rate.

Compound: CCCCCCCCCCCCCCCCCCCCCC[C@@H](O)C(=O)N[C@@H](CO[C@H]1O[C@H](CO)[C@H](O)[C@H](O[C@H]2O[C@H](CO)[C@H](O)[C@H](O)[C@H]2NC(C)=O)[C@H]1O[C@H]1O[C@H](CO)[C@@H](O)[C@H](O)[C@H]1O)[C@H](O)[C@H](O)CCCCCCCCCCCC(C)C [Compound 5, O-(N-acetyl-2-amino-2-deoxy-α-D-galactopyranosyl)-(1→3)-O-[α-D-glucopyranosyl-(1→2)]-O-α-D-galactopyranosyl-(1→1)-(2S,3S,4R)-2-amino-N-[(R)-2-hydroxytetracosanoyl]-16-methyl-1,3,4-heptadecanetriol]
- Number of surviving mice ([1]; day 10): 10 mice
- Number of surviving mice ([1]; day 15, 0.1 mg/kg): 8 mice
- Number of surviving mice ([1]; day 20, 0.1 mg/kg): 7 mice
- Number of surviving mice ([1]; day 25, 0.1 mg/kg): 7 mice
- Number of surviving mice ([1]; day 30, 0.1 mg/kg): 7 mice
- Number of surviving mice ([1]; day 35, 0.1 mg/kg): 7 mice
- Number of surviving mice ([1]; day 40, 0.1 mg/kg): 7 mice
- Uptake of 3H-TdR (% of control), splenic lymphocytes ([2]; 10^0 μg/ml, 2880 min): 889 % of control
- Uptake of 3H-TdR (% of control), splenic lymphocytes ([2]; 10^-1 μg/ml, 2880 min): 764 % of control
- Uptake of 3H-TdR (% of control), splenic lymphocytes ([2]; 10^-2 μg/ml, 2880 min): 612 % of control
- Uptake of 3H-TdR (% of control), splenic lymphocytes ([2]; 10^-3 μg/ml, 2880 min): 592 % of control
- Survival days ave. ± s. d. [3]: 15.2 ± 1.1 days
- T/C (%) ([3]; survival vs vehicle): 119%
- Maximum tumor growth inhibiting rate, TGIR (%) [4]: 86.8%
- Uptake of 3H-TdR (% of control), bone marrow cells ([5]; 10^-1 μg/ml, 5760 min): 330 % of control
- Uptake of 3H-TdR (% of control), bone marrow cells ([5]; 10^-2 μg/ml, 5760 min): 283 % of control
- MLR activating rate (%) ([6]; 1 × 10^0 μg/ml, 2520 min): 189%
- MLR activating rate (%) ([6]; 1 × 10^-1 μg/ml, 2520 min): 176%

Compound: O-(N-acetyl-2-amino-2-deoxy-α-D-galactopyranosyl)-(1→3)-O-[α-D-glucopyranosyl-(1→2)]-O-α-D-galactopyranosyl-(1→1)-(2S,3S,4R)-2-amino-N-[(R)-2-hydroxytetracosanoyl]-16-methyl-1,3,4-octadecanetriol [Compound 9]
- Number of surviving mice ([1]; day 10): 10 mice
- Number of surviving mice ([1]; day 15): 8 mice
- Number of surviving mice ([1]; day 20): 5 mice
- Number of surviving mice ([1]; day 25): 3 mice
- Number of surviving mice ([1]; day 30): 3 mice
- Number of surviving mice ([1]; day 35): 3 mice
- Number of surviving mice ([1]; day 40): 3 mice
- Uptake of 3H-TdR (% of control), splenic lymphocytes ([2]; 10^0 μg/ml): 902 % of control
- Uptake of 3H-TdR (% of control), splenic lymphocytes ([2]; 10^-1 μg/ml): 924 % of control
- Uptake of 3H-TdR (% of control), splenic lymphocytes ([2]; 10^-3 μg/ml): 513 % of control
- Survival days ave. ± s. d. [3]: 16.4 ± 1.8 days
- T/C (%) ([3]; survival vs vehicle): 128%
- Maximum tumor growth inhibiting rate, TGIR (%) [4]: 74.8%
- Uptake of 3H-TdR (% of control), bone marrow cells ([5]; 10^-1 μg/ml): 286 % of control
- Uptake of 3H-TdR (% of control), bone marrow cells ([5]; 10^-2 μg/ml): 91 % of control
- MLR activating rate (%) ([6]; 1 × 10^0 μg/ml): 247%
- MLR activating rate (%) ([6]; 1 × 10^-1 μg/ml): 205%

Compound: CCCCCCCCCCCCCCCCCCCCCC[C@@H](O)C(=O)N[C@@H](CO[C@H]1O[C@H](CO)[C@H](O)[C@H](O[C@H]2O[C@H](CO)[C@H](O)[C@H](O)[C@H]2NC(C)=O)[C@H]1O[C@H]1O[C@H](CO)[C@@H](O)[C@H](O)[C@H]1O)[C@H](O)[C@H](O)CCCCCCCCCCCCC [Compound 2, O-(N-acetyl-2-amino-2-deoxy-α-D-galactopyranosyl)-(1→3)-O-[α-D-glucopyranosyl-(1→2)]-O-α-D-galactopyranosyl-(1→1)-(2S,3S,4R)-2-amino-N-[(R)-2-hydroxytetracosanoyl]-1,3,4-heptadecanetriol]
- Number of surviving mice ([1]; day 10): 10 mice
- Number of surviving mice ([1]; day 15): 10 mice
- Number of surviving mice ([1]; day 20): 10 mice
- Number of surviving mice ([1]; day 25): 9 mice
- Number of surviving mice ([1]; day 30): 9 mice
- Number of surviving mice ([1]; day 35): 9 mice
- Number of surviving mice ([1]; day 40): 9 mice
- activity at 1 µg/mL ([2]; Mus musculus, Splenic lymphocyte, 48 h, 10^0 μg/ml, read-out: Uptake of 3H-TdR (% of control), splenic lymphocytes): 890%
- activity at 0.1 µg/mL ([2]; Mus musculus, Splenic lymphocyte, 48 h, 10^-1 μg/ml, read-out: Uptake of 3H-TdR (% of control), splenic lymphocytes): 735%
- activity at 0.01 µg/mL ([2]; Mus musculus, Splenic lymphocyte, 48 h, 10^-2 μg/ml, read-out: Uptake of 3H-TdR (% of control), splenic lymphocytes): 508%
- activity at 0.001 µg/mL ([2]; Mus musculus, Splenic lymphocyte, 48 h, 10^-3 μg/ml, read-out: Uptake of 3H-TdR (% of control), splenic lymphocytes): 270%
- Survival days ave. ± s. d. [3]: 15.8 ± 0.5 days
- response vs control in vivo at 0.1 mg/kg ([3]; Mus musculus, P388, iv, survival vs vehicle, read-out: T/C (%)): 123%
- Maximum tumor growth inhibiting rate, TGIR (%) [4]: 82.6%
- activity at 0.1 µg/mL ([5]; Mus musculus, Bone marrow cell, 96 h, 10^-1 μg/ml, read-out: Uptake of 3H-TdR (% of control), bone marrow cells): 268%
- activity at 0.01 µg/mL ([5]; Mus musculus, Bone marrow cell, 96 h, 10^-2 μg/ml, read-out: Uptake of 3H-TdR (% of control), bone marrow cells): 276%
- activity at 1 µg/mL ([6]; Mus musculus, Lymphocyte, 1 × 10^0 μg/ml, read-out: MLR activating rate (%)): 213%
- activity at 0.1 µg/mL ([6]; Mus musculus, Lymphocyte, 1 × 10^-1 μg/ml, read-out: MLR activating rate (%)): 158%
